“And” between values parts separate entries of the source, which are not always exact repeats. Equal values may be shown once. Read-outs that look alike come from different tables or passages of the source.
Columns and labels:
[1] = Example 3.2 proof-of-concept PK study: tear fluid concentration and drug released from inserts; format: in vivo, beagle dogs; settings: beagle; insert 0.44 mg cyclosporine, 4a20K SG/trilysine; over 32 days
From the text: Inserts were removed at 32 days to determine the amount of remaining drug compared to the administered dose.

[2] = system: immunomodulation; settings: Tang-Liu and Acheampong, Clin. Pharmacokinet. 44(3); cited from earlier work
[3] = beagle, insert 0.7 mg cyclosporine, 4a20K SAZ/trilysine
[4] = for Cyclosporine per insert (left in removed insert), OD: beagles, initial dose 671±13 μg
[5] = Particle size of cyclosporine by laser diffraction (effect of surfactants); format: physicochemical; settings: no surfactant

CC=CCC(C)C(O)C1C(=O)NC(CC)C(=O)N(C)CC(=O)N(C)C(CC(C)C)C(=O)NC(C(C)C)C(=O)N(C)C(CC(C)C)C(=O)NC(C)C(=O)NC(C)C(=O)N(C)C(CC(C)C)C(=O)N(C)C(CC(C)C)C(=O)N(C)C(C(C)C)C(=O)N1C (centres unmarked) [Cyclosporine, 30-ethyl-33-(1-hydroxy-2-methylhex-4-enyl)-1,4,7,10,12,15,19,25,28-nonamethyl-6,9,18,24-tetrakis(2-methylpropyl)-3,21-di(propan-2-yl)-1,4,7,10,13,16,19,22,25,28,31-undecazacyclotritriacontane-2,5,8,11,14,17,20,23,26,29,32-undecone]
Estimated daily delivered dose [1]: 6.3 µg/day
Cyclosporine concentration considered to be required for immunomodulation [2]: 0.236 µg/mL
Average amount of cyclosporine released in 6 weeks ([3]; inserts removed at 6 weeks): 0.37 mg
Estimated daily delivered dose ([3]; over 6 weeks): 8.8 µg/day
Released amount ([4]; beagle, insert 0.67 mg cyclosporine, 4a20K SG/trilysine, 28 days): 3.4 µg
Released amount ([4]; beagle, insert 0.67 mg cyclosporine, 4a20K SG/trilysine, 50 days): 3.5 µg
Daily estimated delivered dose ([4]; beagle, insert 0.67 mg cyclosporine, 4a20K SG/trilysine, over 28 and 50 days): approximately 3.5 μg/day
Cyclosporine per insert (left in removed insert), OD ([4]; insert removed at Day 28, single inserts): 596 µg
Cyclosporine per insert (left in removed insert), OD ([4]; insert removed at Day 50, single inserts): 451 µg and 520 µg and 521 µg
D10 [Average] ([5]; in DIW): 4 μm
D10 [Average] ([5]; in PBS): 4.1 μm

From patent US12161753B2, “Sustained release biodegradable intracanalicular inserts comprising a hydrogel and an active agent” (OCULAR THERAPEUTIX, INC., priority 2020, dated 2024)
